Assays:
[1] = test system: Yucatan mini-pigs with a heterozygous MYH7 R403Q mutation; assay: Chronic MYK-581 in mini-pig genetic model of non-obstructed HCM (cMR imaging, invasive hemodynamics, dobutamine challenge); assay type: in vivo
Experimental: The mini-pigs were treated for at least 12 weeks and were evaluated as shown in Schematic 1 below. […] After ˜14 weeks of treatment, all pigs underwent in vivo cMR imaging for the assessment of LV function and geometry, as well as of myocardial composition via of Late Gadolinium Enhancement (LGE) and T1 mapping techniques including extracellular volume (ECV) assessments. In addition, a subset of animals (MYK: n=6, CTRL: n=5) also underwent terminal invasive hemodynamics assessments, including cardiac output (CO, via thermodilution), load-independent systolic/diastolic function (via LV pressure-volume relationships), and β-adrenergic (β-AR) cardiac reserve (via dobutamine at 5 ug/kg/min IV).
The mini-pig model can be obtained following the method disclosed in a presentation entitled “A Minipig Genetic Model of Hypertrophic Cardiomyopathy Uncovers the Pathophysiological Mechanisms of Disease Evolution”, by E. Green et al., at University of Iowa, Carver College of Medicine.

[2] = target: T1, bovine cardiac synthetic myosin filaments (Bos taurus, UniProt Q9BE39); assay: DRX/SRX ATPase rate and SRX population in cardiac synthetic myosin filaments; assay type: biochemical; conditions: over a range of concentrations; the two compounds compared
T1 construct: bovine cardiac synthetic myosin filaments; from tissue; host or cells: bovine heart (inferred from 'bovine cardiac'; the preparation is not described)
T1 sequence (Q9BE39 whole entry): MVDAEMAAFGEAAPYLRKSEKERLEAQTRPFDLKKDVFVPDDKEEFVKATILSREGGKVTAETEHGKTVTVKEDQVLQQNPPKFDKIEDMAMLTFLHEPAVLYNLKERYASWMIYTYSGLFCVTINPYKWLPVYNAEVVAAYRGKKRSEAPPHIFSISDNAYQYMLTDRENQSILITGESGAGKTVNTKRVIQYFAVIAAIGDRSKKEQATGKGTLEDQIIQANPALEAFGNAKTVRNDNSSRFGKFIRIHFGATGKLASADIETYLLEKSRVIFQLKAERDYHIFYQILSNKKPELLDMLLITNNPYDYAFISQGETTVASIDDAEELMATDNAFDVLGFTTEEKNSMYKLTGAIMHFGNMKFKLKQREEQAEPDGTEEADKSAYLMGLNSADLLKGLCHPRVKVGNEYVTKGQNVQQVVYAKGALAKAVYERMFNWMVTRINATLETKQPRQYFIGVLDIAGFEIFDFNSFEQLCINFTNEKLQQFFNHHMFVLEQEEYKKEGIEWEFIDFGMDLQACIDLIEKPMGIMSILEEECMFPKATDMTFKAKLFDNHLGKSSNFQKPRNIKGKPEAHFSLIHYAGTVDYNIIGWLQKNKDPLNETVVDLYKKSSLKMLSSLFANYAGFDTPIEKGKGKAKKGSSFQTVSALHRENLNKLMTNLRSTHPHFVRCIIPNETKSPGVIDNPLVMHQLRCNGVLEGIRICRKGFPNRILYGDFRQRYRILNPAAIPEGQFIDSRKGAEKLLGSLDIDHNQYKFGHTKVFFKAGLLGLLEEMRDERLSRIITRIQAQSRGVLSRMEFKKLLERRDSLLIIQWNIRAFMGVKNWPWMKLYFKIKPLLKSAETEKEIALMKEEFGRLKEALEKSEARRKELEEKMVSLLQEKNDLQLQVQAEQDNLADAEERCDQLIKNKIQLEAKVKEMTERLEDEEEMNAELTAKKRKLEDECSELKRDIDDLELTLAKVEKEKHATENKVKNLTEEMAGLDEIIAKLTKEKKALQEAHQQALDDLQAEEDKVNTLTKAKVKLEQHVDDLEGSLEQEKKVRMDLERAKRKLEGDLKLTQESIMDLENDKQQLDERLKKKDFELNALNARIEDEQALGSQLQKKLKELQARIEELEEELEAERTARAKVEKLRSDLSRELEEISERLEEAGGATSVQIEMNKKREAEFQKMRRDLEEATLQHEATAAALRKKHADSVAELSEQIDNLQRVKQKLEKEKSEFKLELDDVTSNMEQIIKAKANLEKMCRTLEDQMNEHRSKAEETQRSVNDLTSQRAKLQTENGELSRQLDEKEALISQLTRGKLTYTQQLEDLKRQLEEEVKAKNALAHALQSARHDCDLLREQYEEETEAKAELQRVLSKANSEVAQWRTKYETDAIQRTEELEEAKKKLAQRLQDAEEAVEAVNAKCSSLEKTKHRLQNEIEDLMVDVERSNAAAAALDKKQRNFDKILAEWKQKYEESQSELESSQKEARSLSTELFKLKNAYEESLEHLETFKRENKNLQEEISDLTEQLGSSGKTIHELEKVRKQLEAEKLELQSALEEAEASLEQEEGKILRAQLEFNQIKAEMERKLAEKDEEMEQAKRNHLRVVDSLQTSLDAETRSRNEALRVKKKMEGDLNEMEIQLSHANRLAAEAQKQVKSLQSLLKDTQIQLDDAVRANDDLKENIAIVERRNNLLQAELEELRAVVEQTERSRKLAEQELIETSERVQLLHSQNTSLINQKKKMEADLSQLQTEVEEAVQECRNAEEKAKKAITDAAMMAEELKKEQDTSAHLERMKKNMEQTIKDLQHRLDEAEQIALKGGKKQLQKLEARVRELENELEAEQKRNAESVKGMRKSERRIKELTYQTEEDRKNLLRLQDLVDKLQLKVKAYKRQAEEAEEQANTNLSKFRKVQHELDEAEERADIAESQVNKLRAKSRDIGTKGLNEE
T1 sequence (P85100 whole entry partner): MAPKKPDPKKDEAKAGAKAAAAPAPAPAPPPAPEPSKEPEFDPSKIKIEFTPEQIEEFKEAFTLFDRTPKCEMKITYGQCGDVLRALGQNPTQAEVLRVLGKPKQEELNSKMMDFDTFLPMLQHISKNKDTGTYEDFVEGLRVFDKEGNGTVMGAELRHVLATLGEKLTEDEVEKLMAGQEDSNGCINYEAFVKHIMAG
T1 sequence (Q3SZE5 whole entry partner): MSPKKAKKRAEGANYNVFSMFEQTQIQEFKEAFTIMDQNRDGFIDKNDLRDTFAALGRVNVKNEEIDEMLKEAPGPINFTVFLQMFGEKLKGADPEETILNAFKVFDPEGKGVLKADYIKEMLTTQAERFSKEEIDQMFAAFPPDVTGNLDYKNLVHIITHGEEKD

[3] = test system: conscious Sprague-Dawley rats; assay: Mavacamten-induced cardio-depression with positive inotropic challenges, echocardiography; assay type: in vivo, rat; conditions: inotropic challenge 3 hrs after MAVA 4 mg/kg PO
Experimental: Methods: The responsiveness of mavacamten-induced cardio-depression to positive inotropic challenges was assessed in a set of conscious Sprague-Dawley rats. In these animals, functional reserve was assessed via either dobutamine (+DOB, 10 ug/kg/min IV for 10 min, n=7) or levosimendan (+LEVO, 0.3 μmol/kg IV over […]; n=6) challenges given 3 hrs following a single-dose administration of MAVA (at 4 mg/kg, PO). Cardiac function/geometry were recorded and compared at three separate time-points/days: prior to dosing (i.e., at baseline) and at 3 hrs post-dosing both before as well as during the inotropic challenge; in order to account for the levosimendan-induced changes in loading conditions, an additional echocardiographic examination was performed following acute preload-restoration in LEVO-treated rats (+LEVO/F, 0.9% NaCl at 30 mL/kg/hr IV).
In these experiments, left-ventricular fractional shortening (FS), an index of systolic performance, as well as LV dimensions/volumes and heart rates were measured using a high-frequency transducer and parasternal long-axis transthoracic views (Vevo2100, VisualSonic). FS was defined as the end-diastole normalized change in internal dimensions/diameter of the left ventricle between end-systole (LVESd) and end-diastole (LVEDd) (i.e., FS=100·[LVEDd−LVESd]/LVEDd). LV volumes were derived assuming a Teichholz model (LVV=7·[2.4+LVid]−1·LVid3).

[4] = test system: conscious fully-instrumented dogs with normal cardiac function; assay: Cardiac reserve under acute β-AR (dobutamine) challenges in conscious instrumented dogs; assay type: in vivo, dog; conditions: before and under acute mavacamten treatment
Experimental: In addition, the effects of MAVA (at 1.5 mg/kg PO, via gavage) on cardiac reserve were evaluated via acute β-AR challenges (dobutamime: 2, 5, and 10 ug/kg/min IV) in conscious fully-instrumented (LVPV group) dogs with normal cardiac function (n=8). These challenges were performed before/after dosing (+3-hour) in control- and MAVA-treated animals both under normal cardiac physiological conditions (n=4) and under (mild) concomitant cardio-depression induced via either selective β-AR blockade (+BB, metoprolol 0.5±0.1 mg/kg PO tid; n=4) or L-type Ca2+-channel blockade (+CCB, verapamil at 5±1 mg/kg PO tid; n=4); pharmacological blockades were established for 7 days prior to the MAVA treatment. Both peak and dose-responses were evaluated at steady state.
Throughout these experiments, analog signals were digitally acquired (1000 Hz) and recorded continuously with a data acquisition/analysis system (IOX; EMKA Technologies). Heart rate (HR), end-systolic (ESP) and end-diastolic pressures (EDP), as well as the peak rates of pressure rise/decline (dP/dtmax and dP/dtmin), the contractility index (CI: dP/dt/P at dP/dtmax), and the time-constant of myocardial relaxation (tau1/2, time for 50% decay from dP/dtmin) were derived from the LV pressure signal. Meanwhile, the end-systolic (ESV) and end-diastolic volumes (EDV) were measured from the LV volume signal derived from the implanted myocardial crystals. LV volumes were derived assuming a Teichholz model, and stroke volume (SV=EDV−ESV), ejection fraction (EF=SV/EDV), as well as cardiac output (CO=SV·HR) were calculated; in a subset of animals, SV and CO values were verified from data derived from the implanted aortic flow […]. […] The slopes of the preload-recruitable stroke work (PRSW; stroke work vs. EDV) and the end-systolic pressure-volume relationships (ESPVR; end-systolic elastance, Ees) were derived by software using linear models (IOX; EMKA Technologies), and were used as load-independent inotropic indices. Ventricular load was estimated by the effective arterial elastance (Ea=ESP/SV). […]

anaesthetized rats = assay: Counteraction of mavacamten effects in anaesthetized rats in vivo; parameters: species or system rat
From the text: (§1) Additional supportive measures, e.g., intravenous volume supplementation and/or the use of arterial vasoconstrictor agents (a adrenergic agonists) may complement the use of a β adrenergic agonist.

[5] = test system: isolated adult rat ventricular myocytes; assay: Counteraction of mavacamten effects in isolated myocytes in vitro; assay type: cell-based
From the text: as §1

For CC(C)n1c(=O)cc(N[C@@H](C)c2cccc(F)c2)[nH]c1=O [MYK-581, (S)-6-((1-(3-fluorophenyl)ethyl)amino)-3-isopropylpyrimidine-2,4(1H,3H)-dione], the “CO (cardiac output)” value ([1]; chronic treatment) was “preserving CO”, the “CO change, β-AR cardiac reserve” value ([1]; dobutamine challenge, control +26±2) was “+60±8%” and the T1-times ([1]; vs control) was “lower T1-times”. For the same compound, the “DRX ATPase rate and SRX ATPase Rate (as a fraction of control)” value [2] was “similar”.

In the case of CC(CCc1ccc(O)cc1)NCCc1ccc(O)c(O)c1 (stereo not drawn) [dobutamine], the “echocardiography-derived indices of systolic function after mavacamten” value [3] is reported as “successfully rescued/restored”, the stroke-volume/cardiac output recruitments [4] is reported as “comparable stroke-volume/cardiac output recruitments” and the “pharmacologic effects of mavacamten counteracted” value (anaesthetized rats) is reported as “can be counteracted”.

In the case of CC(C)NCC(O)c1ccc(O)c(O)c1 (stereo not drawn) [isoproterenol], the “pharmacologic effects of mavacamten counteracted” value [5] is reported as “can be counteracted”.

For C[C@@H]1CC(=O)NN=C1c1ccc(NN=C(C#N)C#N)cc1 [levosimendan], the “echocardiography-derived indices of systolic function after mavacamten” value [3] was “successfully rescued/restored”.

— patent US12616697B2, “Methods of treatment with myosin modulator” (MyoKardia, Inc., priority 2020, dated 2026)
